# Laboratory results published in PubChem BioAssay (NCI).
#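 The concentration for 50% growth inhibition is given as GI50. Definition used: TGI = concentration required for complete inhibition of growth.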
# What was measured:
# Assay in all cases: NCI tumour cell line growth inhibition, 384-well format
# [1] = tested on: 786-0 renal
# [2] = tested on: A498 renal
# [3] = tested on: A549 NSCLC
# [4] = tested on: ACHN renal
# [5] = tested on: BT-549 breast
# [6] = tested on: CAKI-1 renal
# [7] = tested on: CCRF-CEM leukemia
# [8] = tested on: COLO 205 colon
# [9] = tested on: DU-145 prostate
# [10] = tested on: EKVX NSCLC
# [11] = tested on: HCC-2998 colon
# [12] = tested on: HCT-116 colon
# [13] = tested on: HCT-15 colon
# [14] = tested on: HL-60(TB) leukemia
# [15] = tested on: HOP-62 NSCLC
# [16] = tested on: HOP-92 NSCLC
# [17] = tested on: HS 578T breast
# [18] = tested on: HT29 colon
# [19] = tested on: IGROV1 ovarian
# [20] = tested on: K-562 leukemia
# [21] = tested on: KM12 colon
# [22] = tested on: LOX IMVI melanoma
# [23] = tested on: M14 melanoma
# [24] = tested on: MALME-3M melanoma
# [25] = tested on: MCF7 breast
# [26] = tested on: MDA-MB-231 breast
# [27] = tested on: MDA-MB-435 melanoma
# [28] = tested on: MDA-MB-468 breast
# [29] = tested on: MOLT-4 leukemia
# [30] = tested on: NCI-H226 lung
# [31] = tested on: NCI-H23 lung
# [32] = tested on: NCI-H322M lung
# [33] = tested on: NCI-H460 NSCLC
# [34] = tested on: NCI-H522 lung
# [35] = tested on: NCI/ADR-RES ovarian
# [36] = tested on: OVCAR-3 ovarian
# [37] = tested on: OVCAR-4 ovarian
# [38] = tested on: OVCAR-5 ovarian
# [39] = tested on: OVCAR-8 ovarian
# [40] = tested on: PC-3 prostate
# [41] = tested on: RPMI-8226 leukemia
# [42] = tested on: RXF 393 renal
# [43] = tested on: SF-268 CNS
# [44] = tested on: SF-295 CNS
# [45] = tested on: SF-539 CNS
# [46] = tested on: SK-MEL-28 melanoma
# [47] = tested on: SK-MEL-5 melanoma
# [48] = tested on: SK-OV-3 ovarian
# [49] = tested on: SN12C renal
# [50] = tested on: SNB-19 CNS
# [51] = tested on: SNB-75 CNS
# [52] = tested on: SW-620 colon
# [53] = tested on: T-47D breast
# [54] = tested on: TK-10 renal
# [55] = tested on: U251 glioblastoma
# [56] = tested on: UACC-257 melanoma
# [57] = tested on: UACC-62 melanoma
# [58] = tested on: UO-31 renal
compound,measurement,setting,value
COc1cc2c(NC3CCN(C(C)C)CC3)nc(C3CCCCC3)nc2cc1OCCCN1CCCC1,GI50,[1],1350 nM
same,TGI,[1],2650 nM
same,GI50,[2],683 nM
same,TGI,[2],1960 nM
same,GI50,[3],1560 nM
same,TGI,[3],3000 nM
same,GI50,[4],1790 nM
same,TGI,[4],3800 nM
same,GI50,[5],378 nM
same,TGI,[5],1340 nM
same,GI50,[6],1390 nM
same,TGI,[6],2720 nM
same,GI50,[7],205 nM
same,TGI,[7],397 nM
same,GI50,[8],1330 nM
same,TGI,[8],2640 nM
same,GI50,[9],1230 nM
same,TGI,[9],4290 nM
same,GI50,[10],807 nM
same,TGI,[10],2860 nM
same,GI50,[11],1560 nM
same,TGI,[11],3010 nM
same,GI50,[12],550 nM
same,TGI,[12],1750 nM
same,GI50,[13],1240 nM
same,TGI,[13],5200 nM
same,GI50,[14],429 nM
same,TGI,[14],1070 nM
same,GI50,[15],1710 nM
same,TGI,[15],3140 nM
same,GI50,[16],1200 nM
same,TGI,[16],2460 nM
same,GI50,[17],1750 nM
same,TGI,[17],3140 nM
same,GI50,[18],285 nM
same,TGI,[18],1110 nM
same,GI50,[19],1530 nM
same,TGI,[19],11300 nM
same,GI50,[20],484 nM
same,TGI,[20],1740 nM
same,GI50,[21],991 nM
same,TGI,[21],2520 nM
same,GI50,[22],1450 nM
same,TGI,[22],2790 nM
same,GI50,[23],1740 nM
same,TGI,[23],3140 nM
same,GI50,[24],1370 nM
same,TGI,[24],2680 nM
same,GI50,[25],1110 nM
same,TGI,[25],2400 nM
same,GI50,[26],1610 nM
same,TGI,[26],3340 nM
same,GI50,[27],1160 nM
same,TGI,[27],2400 nM
same,GI50,[28],262 nM
same,TGI,[28],587 nM
same,GI50,[29],552 nM
same,TGI,[29],1910 nM
same,GI50,[30],1790 nM
same,TGI,[30],3940 nM
same,GI50,[31],1950 nM
same,TGI,[31],4650 nM
same,GI50,[32],1490 nM
same,TGI,[32],3010 nM
same,GI50,[33],365 nM
same,TGI,[33],1040 nM
same,GI50,[34],634 nM
same,TGI,[34],1830 nM
same,GI50,[35],69000 nM
same,TGI,[35],> 100000 nM
same,GI50,[36],835 nM
same,TGI,[36],2080 nM
same,GI50,[37],1120 nM
same,TGI,[37],2440 nM
same,GI50,[38],1970 nM
same,TGI,[38],4260 nM
same,GI50,[39],1540 nM
same,TGI,[39],2910 nM
same,GI50,[40],1430 nM
same,TGI,[40],4160 nM
same,GI50,[41],368 nM
same,TGI,[41],1130 nM
same,GI50,[42],347 nM
same,TGI,[42],1400 nM
same,GI50,[43],307 nM
same,TGI,[43],1520 nM
same,GI50,[44],1800 nM
same,TGI,[44],3210 nM
same,GI50,[45],292 nM
same,TGI,[45],937 nM
same,GI50,[46],1260 nM
same,TGI,[46],2530 nM
same,GI50,[47],873 nM
same,TGI,[47],2120 nM
same,GI50,[48],1410 nM
same,TGI,[48],2970 nM
same,GI50,[49],1120 nM
same,TGI,[49],2950 nM
same,GI50,[50],1230 nM
same,TGI,[50],3100 nM
same,GI50,[51],1400 nM
same,TGI,[51],2710 nM
same,GI50,[52],1550 nM
same,TGI,[52],2910 nM
same,GI50,[53],573 nM
same,TGI,[53],1830 nM
same,GI50,[54],1280 nM
same,TGI,[54],2560 nM
same,GI50,[55],1030 nM
same,TGI,[55],2200 nM
same,GI50,[56],1250 nM
same,TGI,[56],2510 nM
same,GI50,[57],1750 nM
same,TGI,[57],3150 nM
same,GI50,[58],1320 nM
same,TGI,[58],2720 nM
